In patent publication US11856974B2, “Highly soluble stevia sweetener” (PureCircle Sdn Bhd, priority 2011, dated 2024):
Like-named read-outs stand apart in the source and are kept apart here.

Columns and labels:
[1] = background description of Rebaudioside A forms, % = grams soluble in 100 grams of solvent, cited from earlier work
[2] = cited from earlier work
[3] = Solubility comparison of spray dried amorphous powder samples; type: physicochemical; conditions: room temperature
Description: Hereinafter, unless specified otherwise, the solubility of material is determined in RO (reverse osmosis) water at room temperature. Where the solubility is expressed as “%” it to be understood as number of grams of material soluble in 100 grams of solvent.

[4] = Solubility in RO water at room temperature; type: physicochemical; conditions: % = grams soluble in 100 grams of solvent
Description: Hereinafter, unless specified otherwise, the solubility of material is determined in RO (reverse osmosis) water at room temperature.

| Structure (SMILES) | Rate of dissolution in H2O at 25° C. ([2]; grade in words) | Observation (solubility) ([3]; at 5% in water) | Observation (solubility) ([3]; at 10% in water) | Observation (solubility) ([3]; at 20% in water) | Observation (solubility) ([3]; at 30% in water) | other results |
| --- | --- | --- | --- | --- | --- | --- |
| C=C1C[C@@]23CC[C@H]4[C@@](C)(CCC[C@@]4(C)C(=O)O[C@@H]4O[C@H](CO)[C@@H](O)[C@H](O)[C@H]4O)[C@@H]2CC[C@]1(O[C@@H]1O[C@H](CO)[C@@H](O)[C@H](O[C@@H]2O[C@H](CO)[C@@H](O)[C@H](O)[C@H]2O)[C@H]1O[C@@H]1O[C@H](CO)[C@@H](O)[C@H](O)[C@H]1O)C3 [Crystalline Rebaudioside A, Rebaudioside A] | – | – | – | – | – | solubility [1]: 1%-2% |
| C=C1C[C@@]23CC[C@H]4[C@@](C)(CCC[C@@]4(C)C(=O)O[C@@H]4O[C@H](CO)[C@@H](O)[C@H](O)[C@H]4O)[C@@H]2CC[C@]1(O[C@@H]1O[C@H](CO)[C@@H](O)[C@H](O[C@@H]2O[C@H](CO)[C@@H](O)[C@H](O)[C@H]2O)[C@H]1O[C@@H]1O[C@H](CO)[C@@H](O)[C@H](O)[C@H]1O)C3 [Form 1, Rebaudioside A] | Very low | – | – | – | – | solubility ([1]; listed as hydrate form): less than 0.2%; Rate of dissolution in H2O at 25° C. ([2]; in 60 minutes): (<0.2% in 60 |
| C=C1C[C@@]23CC[C@H]4[C@@](C)(CCC[C@@]4(C)C(=O)O[C@@H]4O[C@H](CO)[C@@H](O)[C@H](O)[C@H]4O)[C@@H]2CC[C@]1(O[C@@H]1O[C@H](CO)[C@@H](O)[C@H](O[C@@H]2O[C@H](CO)[C@@H](O)[C@H](O)[C@H]2O)[C@H]1O[C@@H]1O[C@H](CO)[C@@H](O)[C@H](O)[C@H]1O)C3 [Form 2, Rebaudioside A] | Intermediate | – | – | – | – | solubility ([1]; listed as anhydrous form): up to 30% |
| C=C1C[C@@]23CC[C@H]4[C@@](C)(CCC[C@@]4(C)C(=O)O[C@@H]4O[C@H](CO)[C@@H](O)[C@H](O)[C@H]4O)[C@@H]2CC[C@]1(O[C@@H]1O[C@H](CO)[C@@H](O)[C@H](O[C@@H]2O[C@H](CO)[C@@H](O)[C@H](O)[C@H]2O)[C@H]1O[C@@H]1O[C@H](CO)[C@@H](O)[C@H](O)[C@H]1O)C3 [Form 3, Rebaudioside A] | High | – | – | – | – | Rate of dissolution in H2O at 25° C. ([2]; in 5 minutes): > 30% |
| C=C1C[C@@]23CC[C@H]4[C@@](C)(CCC[C@@]4(C)C(=O)O[C@@H]4O[C@H](CO)[C@@H](O)[C@H](O)[C@H]4O)[C@@H]2CC[C@]1(O[C@@H]1O[C@H](CO)[C@@H](O)[C@H](O[C@@H]2O[C@H](CO)[C@@H](O)[C@H](O)[C@H]2O)[C@H]1O[C@@H]1O[C@H](CO)[C@@H](O)[C@H](O)[C@H]1O)C3 [Form 4, Rebaudioside A] | High | – | – | – | – | Rate of dissolution in H2O at 25° C. ([2]; in 5 minutes): > 35% |
| C=C1C[C@@]23CC[C@H]4[C@@](C)(CCC[C@@]4(C)C(=O)O[C@@H]4O[C@H](CO)[C@@H](O)[C@H](O)[C@H]4O)[C@@H]2CC[C@]1(O[C@@H]1O[C@H](CO)[C@@H](O)[C@H](O[C@@H]2O[C@H](CO)[C@@H](O)[C@H](O)[C@H]2O)[C@H]1O[C@@H]1O[C@H](CO)[C@@H](O)[C@H](O)[C@H]1O)C3 [Sample #1, Rebaudioside A] | – | Clear solution | Slightly cloudy | Cloudy solution | Undissolved matter | – |
| C=C1C[C@@]23CC[C@H]4[C@@](C)(CCC[C@@]4(C)C(=O)O[C@@H]4O[C@H](CO)[C@@H](O)[C@H](O)[C@H]4O)[C@@H]2CC[C@]1(O[C@@H]1O[C@H](CO)[C@@H](O)[C@H](O[C@@H]2O[C@H](CO)[C@@H](O)[C@H](O)[C@H]2O)[C@H]1O[C@@H]1O[C@H](CO)[C@@H](O)[C@H](O)[C@H]1O)C3 [Sample #2, Rebaudioside A] | – | Clear solution | Clear solution | Slightly cloudy | Cloudy solution | – |
| C=C1C[C@@]23CC[C@H]4[C@@](C)(CCC[C@@]4(C)C(=O)O[C@@H]4O[C@H](CO)[C@@H](O)[C@H](O)[C@H]4O)[C@@H]2CC[C@]1(O[C@@H]1O[C@H](CO)[C@@H](O)[C@H](O[C@@H]2O[C@H](CO)[C@@H](O)[C@H](O)[C@H]2O)[C@H]1O[C@@H]1O[C@H](CO)[C@@H](O)[C@H](O)[C@H]1O)C3 [Sample #3, Rebaudioside A] | – | Clear solution | Clear solution | Clear solution | Clear solution | Observation (solubility) ([3]; at 40% in water): Slightly cloudy |
| C=C1C[C@@]23CC[C@H]4[C@@](C)(CCC[C@@]4(C)C(=O)O[C@@H]4O[C@H](CO)[C@@H](O)[C@H](O)[C@H]4O)[C@@H]2CC[C@]1(O[C@@H]1O[C@H](CO)[C@@H](O)[C@H](O[C@@H]2O[C@H](CO)[C@@H](O)[C@H](O)[C@H]2O)[C@H]1O[C@@H]1O[C@H](CO)[C@@H](O)[C@H](O)[C@H]1O)C3 [highly soluble amorphous form of rebaudioside A] | – | – | – | – | – | solubility in water [4]: greater than 30% |
| C=C1C[C@@]23CC[C@H]4[C@@](C)(CCC[C@@]4(C)C(=O)O[C@@H]4O[C@H](CO)[C@@H](O)[C@H](O)[C@H]4O)[C@@H]2CC[C@]1(O[C@@H]1O[C@H](CO)[C@@H](O)[C@H](O[C@@H]2O[C@H](CO)[C@@H](O)[C@H](O)[C@H]2O)[C@H]1O[C@@H]1O[C@H](CO)[C@@H](O)[C@H](O)[C@H]1O)C3 [rebaudioside A] | – | – | – | – | – | solubility in water [4]: 0.6% |
